Measurements taken from patent publication EP4678638A1, “NEW E3 UBIQUITIN LIGASE LIGAND, PROTEIN DEGRADATION AGENT AND USE THEREOF” (priority 2023, dated 2024).
Read-outs that look alike come from different tables or passages of the source.

Legend:
MV-4-11 = assay: CCK-8 proliferation, MV-4-11; type: cell-based, Human; settings: CCK-8, 72 or 96 hours, read-out: Inhibitory activity (IC50) on tumor cell proliferation, MV-4-11
Summary of the method: (§1)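 Cells seeded, then after 24 h treated with 10 concentrations (top 10 µM, 5-fold serial dilution) for a line-specific time at 37°C, 5% CO2. Viability read by CCK-8; IC50 fitted from growth-inhibition curves.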

Kasumi-1 = assay: CCK-8 proliferation, Kasumi-1; type: cell-based, Human; settings: read-out: Inhibitory activity (IC50) on tumor cell proliferation, Kasumi-1
Method: The tumor cells used herein were cultured in a cell culture medium listed in table A1 at 37°C in an incubator with 5% CO2. Prior to experimentation, all cell lines used were correctly identified by STR profiling, and tested negative for mycoplasma contamination using a mycoplasma detection kit through routine screenings. Table A1. Tumor cells and cell culture medium used in the present disclosure
IC50 values of the compounds of the present disclosure (including the compounds in Table 1, and compounds of examples) were measured using the Meilun Cell Counting Kit-8 kit from Dalian Meilun Biotech Co., Ltd. Assay details are as follows: tumor cells were seeded in a 96-well plate at a density listed in Table A2. After 24h, 100 µL of the inoculated cells were treated with 0.5µL of the compounds of the present disclosure (including the compounds in Tables 1 and 2, and compounds of examples) at 10 different successively decreasing concentrations (starting at the highest concentration of 10µM; 5-fold serial dilutions). After the cells were treated with the compounds of the present disclosure for a period of time, the cell viability detection reagent was added to the culture medium for cell viability assessment according to the instructions provided with the CCK-8 kit. […] The growth inhibition of the compounds of the present disclosure on cells was plotted by Prism Graphpad software, and the IC50 values of the compounds of the present disclosure were calculated therefrom. […] Seeding protocol and treatment time for tumor cells

CCRF-CEM = assay: CCK-8 proliferation, CCRF-CEM; type: cell-based, Human; settings: CCK-8, 96 hours, read-out: Inhibitory activity (IC50) on tumor cell proliferation, CCRF-CEM
Summary of the method: as §1

CDK4 = target: T1, CDK4 (Homo sapiens, UniProt P11802); assay: Western blot degradation of CDK4 (MDA-MB-231 Cell); type: cell-based; settings: Table D3
T1 construct: evaluate the effects of the compounds of the present disclosure on the expression of target proteins in cells; endogenous in cells; host or cells: MDA-MB-231
Summary of the method: (§2)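 Quantification by ImageJ densitometry of Western blot bands: DC50 is the fitted concentration halving band intensity relative to DMSO. Percent remaining uses internal-control normalization, and degradation rate is its complement.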

CDK6 = target: T2, CDK6 (Homo sapiens, UniProt Q00534); assay: Western blot degradation of CDK6 (MDA-MB-231 Cell); type: cell-based; settings: Table D3
T2 construct: evaluate the effects of the compounds of the present disclosure on the expression of target proteins in cells; endogenous in cells; host or cells: MDA-MB-231
T2 sequence (Q00534 whole entry): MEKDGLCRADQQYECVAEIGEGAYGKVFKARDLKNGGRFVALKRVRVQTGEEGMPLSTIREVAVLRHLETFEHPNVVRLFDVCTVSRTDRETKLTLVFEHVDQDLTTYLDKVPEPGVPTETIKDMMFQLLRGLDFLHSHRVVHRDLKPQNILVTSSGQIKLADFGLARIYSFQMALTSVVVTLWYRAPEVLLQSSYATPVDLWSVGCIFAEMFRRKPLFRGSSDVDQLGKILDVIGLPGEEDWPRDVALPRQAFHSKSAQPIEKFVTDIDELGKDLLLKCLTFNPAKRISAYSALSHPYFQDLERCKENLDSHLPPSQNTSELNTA
Summary of the method: as §2

MCF7 = assay: CCK-8 proliferation, MCF7 (MCF-7); type: cell-based; settings: Homo sapiens, MCF7, CCK-8
Summary of the method: as §1

IKZF3 = target: T3, IKZF3 (Homo sapiens, UniProt Q96SW2+Q9UKT9); assay: Western blot degradation of IKZF3 (hPBMC); type: cell-based; settings: Table D16
T3 construct: evaluate the effects of the compounds of the present disclosure on the expression of target proteins in cells; endogenous in cells; host or cells: hPBMC
T3 sequence (Q9UKT9 whole entry): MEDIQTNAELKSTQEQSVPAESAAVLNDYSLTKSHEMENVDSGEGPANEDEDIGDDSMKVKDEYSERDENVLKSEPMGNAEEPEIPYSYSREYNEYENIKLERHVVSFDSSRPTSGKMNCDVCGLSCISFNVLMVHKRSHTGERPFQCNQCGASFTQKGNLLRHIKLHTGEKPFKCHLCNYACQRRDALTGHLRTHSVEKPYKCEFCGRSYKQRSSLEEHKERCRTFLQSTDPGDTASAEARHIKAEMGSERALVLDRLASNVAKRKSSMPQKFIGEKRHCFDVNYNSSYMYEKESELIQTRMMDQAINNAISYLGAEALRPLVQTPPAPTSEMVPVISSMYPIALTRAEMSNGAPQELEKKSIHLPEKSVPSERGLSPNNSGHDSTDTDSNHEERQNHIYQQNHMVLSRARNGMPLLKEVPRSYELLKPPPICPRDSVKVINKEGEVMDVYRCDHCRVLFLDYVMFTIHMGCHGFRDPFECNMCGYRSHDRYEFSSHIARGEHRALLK
T3 sequence (Q96SW2 whole entry): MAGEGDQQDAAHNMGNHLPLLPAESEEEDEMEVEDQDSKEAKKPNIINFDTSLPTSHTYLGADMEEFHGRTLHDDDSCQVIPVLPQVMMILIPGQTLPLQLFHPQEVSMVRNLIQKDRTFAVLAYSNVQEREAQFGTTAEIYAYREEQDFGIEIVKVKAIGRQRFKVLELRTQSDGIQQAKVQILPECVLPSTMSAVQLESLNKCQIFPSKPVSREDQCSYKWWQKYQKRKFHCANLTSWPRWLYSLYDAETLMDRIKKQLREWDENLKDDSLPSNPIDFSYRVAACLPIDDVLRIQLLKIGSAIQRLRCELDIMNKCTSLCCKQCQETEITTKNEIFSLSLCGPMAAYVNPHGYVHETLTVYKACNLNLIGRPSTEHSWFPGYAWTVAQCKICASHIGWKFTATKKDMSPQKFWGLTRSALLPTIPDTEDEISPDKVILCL
T3 sequence (Q16531 whole entry partner): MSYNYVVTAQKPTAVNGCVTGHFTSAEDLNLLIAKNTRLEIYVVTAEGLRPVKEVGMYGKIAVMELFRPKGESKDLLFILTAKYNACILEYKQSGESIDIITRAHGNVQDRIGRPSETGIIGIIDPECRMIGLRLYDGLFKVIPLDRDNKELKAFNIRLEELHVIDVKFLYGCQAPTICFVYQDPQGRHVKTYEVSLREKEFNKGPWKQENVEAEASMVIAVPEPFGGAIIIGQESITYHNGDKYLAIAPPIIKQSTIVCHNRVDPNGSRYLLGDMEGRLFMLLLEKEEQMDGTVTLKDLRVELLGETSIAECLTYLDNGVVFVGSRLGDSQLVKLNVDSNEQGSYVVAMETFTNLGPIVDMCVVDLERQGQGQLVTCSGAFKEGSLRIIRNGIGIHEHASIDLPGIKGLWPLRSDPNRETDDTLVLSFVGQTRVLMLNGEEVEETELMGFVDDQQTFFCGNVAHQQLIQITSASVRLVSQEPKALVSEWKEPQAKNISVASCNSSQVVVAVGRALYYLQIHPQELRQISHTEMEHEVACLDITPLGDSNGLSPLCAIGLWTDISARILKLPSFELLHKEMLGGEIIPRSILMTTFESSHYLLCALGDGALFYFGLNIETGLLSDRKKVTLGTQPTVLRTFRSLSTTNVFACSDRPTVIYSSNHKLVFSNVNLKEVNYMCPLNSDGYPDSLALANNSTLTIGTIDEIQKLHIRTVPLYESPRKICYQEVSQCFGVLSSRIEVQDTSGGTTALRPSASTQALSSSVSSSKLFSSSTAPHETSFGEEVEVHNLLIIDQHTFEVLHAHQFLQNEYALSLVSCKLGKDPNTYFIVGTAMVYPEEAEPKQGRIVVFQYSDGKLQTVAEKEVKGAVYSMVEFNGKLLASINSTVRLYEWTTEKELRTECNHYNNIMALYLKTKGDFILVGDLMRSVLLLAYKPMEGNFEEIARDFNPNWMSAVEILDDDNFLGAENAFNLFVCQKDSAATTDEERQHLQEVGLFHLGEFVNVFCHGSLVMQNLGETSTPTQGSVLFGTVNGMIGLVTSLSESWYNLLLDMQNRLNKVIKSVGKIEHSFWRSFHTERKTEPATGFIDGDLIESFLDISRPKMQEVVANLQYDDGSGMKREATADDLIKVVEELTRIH
Summary of the method: as §2

WEE1 = target: T4, WEE1 (Homo sapiens, UniProt P30291+Q96SW2); assay: Western blot degradation of WEE1 (hPBMC); type: cell-based; settings: Table D16
T4 construct: evaluate the effects of the compounds of the present disclosure on the expression of target proteins in cells; endogenous in cells; host or cells: hPBMC
T4 sequence (P30291 whole entry): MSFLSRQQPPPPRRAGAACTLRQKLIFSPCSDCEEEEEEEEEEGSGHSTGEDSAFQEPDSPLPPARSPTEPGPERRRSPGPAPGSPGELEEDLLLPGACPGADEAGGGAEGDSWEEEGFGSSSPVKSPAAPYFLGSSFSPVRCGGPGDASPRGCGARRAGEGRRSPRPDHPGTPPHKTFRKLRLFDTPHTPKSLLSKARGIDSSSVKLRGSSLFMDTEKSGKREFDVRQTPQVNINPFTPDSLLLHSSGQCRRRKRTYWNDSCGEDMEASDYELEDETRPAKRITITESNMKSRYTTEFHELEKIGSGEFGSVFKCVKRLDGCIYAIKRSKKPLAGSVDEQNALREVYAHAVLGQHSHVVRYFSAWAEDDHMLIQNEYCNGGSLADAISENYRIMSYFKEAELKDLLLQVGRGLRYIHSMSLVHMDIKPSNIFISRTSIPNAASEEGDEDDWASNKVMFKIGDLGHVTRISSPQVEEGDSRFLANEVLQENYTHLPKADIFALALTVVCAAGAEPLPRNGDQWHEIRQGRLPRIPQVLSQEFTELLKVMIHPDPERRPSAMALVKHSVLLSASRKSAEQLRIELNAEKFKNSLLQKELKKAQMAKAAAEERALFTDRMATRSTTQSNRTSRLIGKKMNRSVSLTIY
T4 sequence (Q96SW2 whole entry): as the sequence (Q96SW2 whole entry) above
T4 sequence (Q16531 whole entry partner): as the sequence (Q16531 whole entry partner) above
Summary of the method: as §2

IKZF1 = target: T5, IKZF1 (Homo sapiens, UniProt Q13422+Q96SW2); assay: Western blot degradation of IKZF1 (hPBMC); type: cell-based; settings: Table D16
T5 construct: evaluate the effects of the compounds of the present disclosure on the expression of target proteins in cells; endogenous in cells; host or cells: hPBMC
T5 sequence (Q13422 whole entry): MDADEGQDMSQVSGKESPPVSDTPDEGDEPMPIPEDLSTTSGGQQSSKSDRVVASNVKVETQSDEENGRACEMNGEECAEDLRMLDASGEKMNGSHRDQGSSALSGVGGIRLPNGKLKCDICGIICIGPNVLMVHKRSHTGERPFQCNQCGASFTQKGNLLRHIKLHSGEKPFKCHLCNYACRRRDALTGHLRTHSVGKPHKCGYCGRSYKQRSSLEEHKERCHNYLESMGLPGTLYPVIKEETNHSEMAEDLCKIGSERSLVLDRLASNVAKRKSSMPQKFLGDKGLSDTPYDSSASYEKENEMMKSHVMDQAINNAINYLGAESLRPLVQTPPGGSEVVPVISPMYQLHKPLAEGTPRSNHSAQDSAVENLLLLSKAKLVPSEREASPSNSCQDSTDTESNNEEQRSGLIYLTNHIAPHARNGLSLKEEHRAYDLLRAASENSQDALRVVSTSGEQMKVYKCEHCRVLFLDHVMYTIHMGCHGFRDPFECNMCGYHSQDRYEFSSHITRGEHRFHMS
T5 sequence (Q96SW2 whole entry): as the sequence (Q96SW2 whole entry) above
T5 sequence (Q16531 whole entry partner): as the sequence (Q16531 whole entry partner) above
Summary of the method: as §2

GSPT1 = target: T6, GSPT1 (Homo sapiens, UniProt P15170+Q96SW2); assay: Western blot degradation of GSPT1 (hPBMC); type: cell-based; settings: Table D16
T6 construct: evaluate the effects of the compounds of the present disclosure on the expression of target proteins in cells; endogenous in cells; host or cells: hPBMC
Summary of the method: as §2

CK1a = target: T7, CK1a (Homo sapiens, UniProt P48729+Q96SW2); assay: Western blot degradation of CK1a (hPBMC); type: cell-based; settings: Table D16
T7 construct: evaluate the effects of the compounds of the present disclosure on the expression of target proteins in cells; endogenous in cells; host or cells: hPBMC
T7 sequence (P48729 whole entry): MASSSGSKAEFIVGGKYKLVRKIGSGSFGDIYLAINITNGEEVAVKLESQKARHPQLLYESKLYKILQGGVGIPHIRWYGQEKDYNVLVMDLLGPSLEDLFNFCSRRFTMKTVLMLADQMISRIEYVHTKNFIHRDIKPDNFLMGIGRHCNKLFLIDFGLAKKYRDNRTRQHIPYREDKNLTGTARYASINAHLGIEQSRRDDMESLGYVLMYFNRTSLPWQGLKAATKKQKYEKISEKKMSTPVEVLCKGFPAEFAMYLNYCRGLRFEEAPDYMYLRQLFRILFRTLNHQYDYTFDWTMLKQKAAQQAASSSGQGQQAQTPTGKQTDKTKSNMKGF
T7 sequence (Q96SW2 whole entry): as the sequence (Q96SW2 whole entry) above
T7 sequence (Q16531 whole entry partner): as the sequence (Q16531 whole entry partner) above
Summary of the method: as §2

MDA-MB-231 = assay: CCK-8 proliferation, MDA-MB-231; type: cell-based; settings: Homo sapiens, MDA-MB-231; CCK-8; 96 hours; read-out: Inhibitory activity (IC50) on tumor cell proliferation, MDA-MB-231
Summary of the method: as §1

IKZF2 = target: T8, IKZF2 (Homo sapiens, UniProt Q96SW2+Q9UKS7); assay: Western blot degradation of IKZF2 (hPBMC); type: cell-based; settings: Table D16
T8 construct: evaluate the effects of the compounds of the present disclosure on the expression of target proteins in cells; endogenous in cells; host or cells: hPBMC
T8 sequence (Q9UKS7 whole entry): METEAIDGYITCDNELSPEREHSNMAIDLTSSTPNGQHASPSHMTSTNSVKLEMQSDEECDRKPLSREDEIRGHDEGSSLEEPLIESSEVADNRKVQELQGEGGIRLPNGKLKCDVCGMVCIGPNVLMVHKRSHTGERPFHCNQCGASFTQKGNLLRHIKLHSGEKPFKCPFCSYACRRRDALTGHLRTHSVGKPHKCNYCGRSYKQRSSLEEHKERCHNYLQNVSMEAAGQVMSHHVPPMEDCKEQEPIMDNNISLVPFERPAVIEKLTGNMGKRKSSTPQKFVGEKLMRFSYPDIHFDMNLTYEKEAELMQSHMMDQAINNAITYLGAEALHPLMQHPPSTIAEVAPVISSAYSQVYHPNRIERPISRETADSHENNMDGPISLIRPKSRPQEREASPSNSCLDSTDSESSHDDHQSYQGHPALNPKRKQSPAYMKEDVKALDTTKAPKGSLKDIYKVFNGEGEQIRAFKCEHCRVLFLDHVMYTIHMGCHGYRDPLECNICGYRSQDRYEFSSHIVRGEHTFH
T8 sequence (Q96SW2 whole entry): as the sequence (Q96SW2 whole entry) above
T8 sequence (Q16531 whole entry partner): as the sequence (Q16531 whole entry partner) above
Summary of the method: as §2

[1] = Homo sapiens, Kasumi 1, 72 hours
[2] = read-out: Inhibitory activity (IC50) on tumor cell proliferation, MCF-7

SMILES	IC50 (MV-4-11; Homo sapiens, MV4-11)	IC50 (Kasumi-1; [1])	Degradation of substrate protein IKZF3 (substrate protein remaining %) (IKZF3)	Degradation of substrate protein WEE1 (substrate protein remaining %) (WEE1)	Degradation of substrate protein IKZF1 (substrate protein remaining %) (IKZF1)	Degradation of substrate protein GSPT1 (substrate protein remaining %) (GSPT1)	Degradation of substrate protein CKla (substrate protein remaining %) (CK1a)	IC50 (MDA-MB-231)	Degradation of substrate protein IKZF2 (substrate protein remaining %) (IKZF2)	other results
Cc1cc(S(=O)(=O)N2CCN(Cc3cccc(N4CCC(=O)NC4=O)c3)CC2)ccc1Nc1ncc(Br)c(Nc2cccc(F)c2C(N)=O)n1 [GT-06832, 2-((5-bromo-2-((4-((4-(3-(2,4-dioxotetrahydropyrimidin-1(2H)-yl)benzyl)piperazin-1-yl)sulfonyl)-2-methylphenyl)amino)pyrimidin-4-yl)amino)-6-fluorobenzamide]	100 to 500 nM	500 to 1000 nM	–	–	–	–	–	–	–	–
CN1CCN(Cc2ccc(NC(=O)c3[nH]ncc3Nc3ncnc4[nH]ccc34)cc2)CC1 [FN-1501, reference compound]	–	–	–	–	–	–	–	–	–	IC50 (MV-4-11): 1 to 10 nM; IC50 (CCRF-CEM): 100 to 500 nM; IC50 (Kasumi-1; 72 hours): 100 to 500 nM
Cc1nc2c(F)cc(-c3nc(Nc4ccc(CN5CCN(Cc6ccc(N7CCC(=O)NC7=O)nc6)CC5)cn4)ncc3F)cc2n1C(C)C [GT-06668, 1-(5-((4-((6-((5-fluoro-4-(4-fluoro-1-isopropyl-2-methyl-1H-benzo[d]imidazol-6-yl)pyrimidin-2-yl)amino)pyridin-3-yl)methyl)piperazin-1-yl)methyl)pyridin-2-yl)dihydropyrimidine-2,4(1H,3H)-dione]	50 to 100 nM	100 to 500 nM	–	–	–	–	–	–	–	Degradation of substrate protein CDK4 (substrate protein remaining %) (CDK4): A (A is defined as 0% ≤ substrate protein remaining % ≤ 80%); Degradation of substrate protein CDK6 (substrate protein remaining %) (CDK6): A (A is defined as 0% ≤ substrate protein remaining % ≤ 80%); IC50 (MCF7; read-out: Inhibitory activity (IC50) on tumor cell proliferation, MCF7): 50 to 100 nM
O=C1CCN(c2cc(CCl)ccn2)C(=O)N1 [GT-07078, 1-(4-(Chloromethyl)pyridin-2-yl)dihydropyrimidine-2,4(1H,3H)-dione]	–	–	B (B is defined as substrate protein remaining % > 80%)	B (B is defined as substrate protein remaining % > 80%)	B (B is defined as substrate protein remaining % > 80%)	A (A is defined as 0% ≤ substrate protein remaining % ≤ 80%)	B (B is defined as substrate protein remaining % > 80%)	1000 to 5000 nM	B (B is defined as substrate protein remaining % > 80%)	IC50 (MCF7; [2]): 1000 to 5000 nM
Cc1ccsc1C(=O)n1nc(Nc2ccc(S(=O)(=O)N3CCN(Cc4ccc(N5CCC(=O)NC5=O)cc4)CC3)cc2)nc1N [GT-06856, 1-(4-((4-((4-((5-amino-1-(3-methylthiophene-2-carbonyl)-1H-1,2,4-triazol-3-yl)amino)phenyl)sulfonyl)piperazin-1-yl)methyl)phenyl)dihydropyrimidine-2,4(1H,3H)-dione]	100 to 500 nM	500 to 1000 nM	–	–	–	–	–	–	–	IC50 (CCRF-CEM; Homo sapiens, CCRF-CEM): 500 to 1000 nM
Cc1ccsc1C(=O)n1nc(Nc2ccc(S(=O)(=O)N3CCN(Cc4cccc(NC5CCC(=O)NC5=O)c4)CC3)cc2)nc1N (stereo not drawn) [GT-06862, 3-((3-((4-((4-((5-amino-1-(3-methylthiophene-2-carbonyl)-1H-1,2,4-triazol-3-yl)amino)phenyl)sulfonyl)piperazin-1-yl)methyl)phenyl)amino)piperidine-2,6-dione]	100 to 500 nM	100 to 500 nM	–	–	–	–	–	–	–	–
Cc1cc(S(=O)(=O)N2CCN(Cc3ccc(N4CCC(=O)NC4=O)nc3)CC2)ccc1Nc1ncc(Br)c(Nc2cccc(F)c2C(N)=O)n1 [GT-06834, 2-((5-bromo-2-((4-((4-((6-(2,4-dioxotetrahydropyrimidin-1(2H)-yl)pyridin-3-yl)methyl)piperazin-1-yl)sulfonyl)-2-methylphenyl)amino)pyrimidin-4-yl)amino)-6-fluorobenzamide]	100 to 500 nM	500 to 1000 nM	–	–	–	–	–	–	–	IC50 (CCRF-CEM; Homo sapiens, CCRF-CEM): 500 to 1000 nM
O=C1CCN(c2cnc(CCl)cn2)C(=O)N1 [GT-07635, 1-(5-(Chloromethyl)pyrazin-2-yl)dihydropyrimidine-2,4(1H,3H)-dione]	–	–	A (A is defined as 0% ≤ substrate protein remaining % ≤ 80%)	A (A is defined as 0% ≤ substrate protein remaining % ≤ 80%)	A (A is defined as 0% ≤ substrate protein remaining % ≤ 80%)	B (B is defined as substrate protein remaining % > 80%)	A (A is defined as 0% ≤ substrate protein remaining % ≤ 80%)	1000 to 5000 nM	A (A is defined as 0% ≤ substrate protein remaining % ≤ 80%)	–
O=C1CCN(c2cc(CCl)c(F)cn2)C(=O)N1 [GT-07199, 1-(4-(Chloromethyl)-5-fluoropyridin-2-yl)dihydropyrimidine-2,4(1H,3H)-dione]	–	–	A (A is defined as 0% ≤ substrate protein remaining % ≤ 80%)	B (B is defined as substrate protein remaining % > 80%)	B (B is defined as substrate protein remaining % > 80%)	A (A is defined as 0% ≤ substrate protein remaining % ≤ 80%)	A (A is defined as 0% ≤ substrate protein remaining % ≤ 80%)	1000 to 5000 nM	A (A is defined as 0% ≤ substrate protein remaining % ≤ 80%)	IC50 (MCF7; [2]): 1000 to 5000 nM
O=C1CCN(c2cnc(F)c(CCl)c2)C(=O)N1 [GT-07633, 1-(5-(Chloromethyl)-6-fluoropyridin-3-yl)dihydropyrimidine-2,4(1H,3H)-dione]	–	–	B (B is defined as substrate protein remaining % > 80%)	A (A is defined as 0% ≤ substrate protein remaining % ≤ 80%)	B (B is defined as substrate protein remaining % > 80%)	B (B is defined as substrate protein remaining % > 80%)	A (A is defined as 0% ≤ substrate protein remaining % ≤ 80%)	1000 to 5000 nM	A (A is defined as 0% ≤ substrate protein remaining % ≤ 80%)	IC50 (MCF7; [2]): 1000 to 5000 nM
Cc1ccsc1C(=O)n1nc(Nc2ccc(S(=O)(=O)N3CCN(Cc4ccc(N5CCC(=O)NC5=O)nc4)CC3)cc2)nc1N [GT-06861, 1-(5-((4-((4-((5-amino-1-(3-methylthiophene-2-carbonyl)-1H-1,2,4-triazol-3-yl)amino)phenyl)sulfonyl)piperazin-1-yl)methyl)pyridin-2-yl)dihydropyrimidine-2,4(1H,3H)-dione]	100 to 500 nM	500 to 1000 nM	–	–	–	–	–	–	–	IC50 (CCRF-CEM; Homo sapiens, CCRF-CEM): 500 to 1000 nM
Cc1cc(S(=O)(=O)N2CCN(Cc3ccc(N4CCC(=O)NC4=O)cc3)CC2)ccc1Nc1ncc(Br)c(Nc2cccc(F)c2C(N)=O)n1 [GT-06831, 2-((5-bromo-2-((4-((4-(4-(2,4-dioxotetrahydropyrimidin-1(2H)-yl)benzyl)piperazin-1-yl)sulfonyl)-2-methylphenyl)amino)pyrimidin-4-yl)amino)-6-fluorobenzamide]	100 to 500 nM	500 to 1000 nM	–	–	–	–	–	–	–	–
